# How the values were obtained:
# [1] = molecular target: T1, N-terminally GST-tagged mTOR (Homo sapiens, UniProt P42345); assay: In vitro mTOR binding assay (LanthaScreen TR-FRET); conditions: LanthaScreen kinase binding, Tracer 314; read-out: mTOR IC50 (binding)
# T1 construct: truncated version: amino acids 1360-2549; purchased Life Technologies PR8683B
# pPKB S473 in A2058 cells = assay: In-cell Western blot, pPKB S473; type: cell-based; conditions: Homo sapiens, 1 hour treatment
# [2] = system: pS6 S235/S236 in A2058 cells; assay: In-cell Western blot, pS6 S235/S236; type: cell-based; conditions: Homo sapiens, 1 hour treatment
# T1 sequence (P42345 1360-2549): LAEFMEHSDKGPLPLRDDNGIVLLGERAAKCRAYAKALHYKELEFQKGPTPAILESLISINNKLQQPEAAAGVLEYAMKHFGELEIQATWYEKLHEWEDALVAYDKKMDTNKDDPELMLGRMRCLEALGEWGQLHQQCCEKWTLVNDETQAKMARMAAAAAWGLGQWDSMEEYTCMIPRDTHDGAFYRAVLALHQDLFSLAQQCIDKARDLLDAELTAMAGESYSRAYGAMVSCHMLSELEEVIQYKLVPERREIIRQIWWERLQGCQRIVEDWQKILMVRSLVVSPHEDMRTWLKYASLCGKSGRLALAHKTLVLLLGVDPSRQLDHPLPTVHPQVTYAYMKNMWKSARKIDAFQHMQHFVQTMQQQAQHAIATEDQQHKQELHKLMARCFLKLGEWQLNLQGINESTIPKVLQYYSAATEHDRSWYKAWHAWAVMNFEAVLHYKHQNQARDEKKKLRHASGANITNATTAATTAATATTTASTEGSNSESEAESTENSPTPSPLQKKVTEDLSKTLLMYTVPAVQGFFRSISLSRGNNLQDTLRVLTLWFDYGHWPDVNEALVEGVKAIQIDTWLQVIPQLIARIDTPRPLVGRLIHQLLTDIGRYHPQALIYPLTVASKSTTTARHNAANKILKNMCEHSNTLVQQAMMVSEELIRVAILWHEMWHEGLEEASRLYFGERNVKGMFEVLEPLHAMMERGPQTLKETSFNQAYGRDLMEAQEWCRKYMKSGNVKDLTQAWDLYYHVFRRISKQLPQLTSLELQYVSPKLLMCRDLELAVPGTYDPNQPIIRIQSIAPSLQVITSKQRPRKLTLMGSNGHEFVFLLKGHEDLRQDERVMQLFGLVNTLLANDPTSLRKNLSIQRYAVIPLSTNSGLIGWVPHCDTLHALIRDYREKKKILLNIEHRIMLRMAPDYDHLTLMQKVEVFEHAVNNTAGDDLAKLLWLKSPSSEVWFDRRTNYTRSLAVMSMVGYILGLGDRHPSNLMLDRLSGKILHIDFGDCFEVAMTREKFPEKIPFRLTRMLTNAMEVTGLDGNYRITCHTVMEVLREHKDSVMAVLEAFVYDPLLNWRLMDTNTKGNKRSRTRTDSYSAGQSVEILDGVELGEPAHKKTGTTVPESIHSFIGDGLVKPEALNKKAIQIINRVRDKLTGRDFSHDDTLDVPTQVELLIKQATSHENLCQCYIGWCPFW
IC50 [1] [nM],"IC50 (pPKB S473 in A2058 cells; A2058, 1 h) [nM]","IC50 ([2]; A2058, 1 h) [nM]",Structure (SMILES),IC50 (pPKB S473 in A2058 cells) [nM],IC50 [2] [nM]
543,208,515,Nc1cc(C(F)F)c(-c2nc(N3CCNCC3)nc(N3CCOCC3)n2)cn1 [Compound 12],–,–
1020,43,150,Nc1ncc(-c2nc(N3CCNCC3)nc(N3CCOCC3)n2)c(C(F)F)n1 [Compound 13],–,–
13,146,250,Nc1cc(C(F)F)c(-c2nc(N3CCOCC3)nc(N3CCSCC3)n2)cn1 [Compound 20],–,–
54,57,216,Nc1ncc(-c2nc(N3CCOCC3)nc(N3CCSCC3)n2)c(C(F)F)n1 [Compound 21],–,–
32,303,294,"C[C@H]1COCCN1c1cc(-c2cnc(N)cc2C(F)F)nc(N2CCOC[C@@H]2C)n1 [Compound 25, 5-(2,6-bis((S)-3-methylmorpholino)pyrimidin-4-yl)-4-(difluoromethyl)pyridin-2-amine]",–,–
47,87,191,"C[C@H]1COCCN1c1cc(-c2cnc(N)nc2C(F)F)nc(N2CCOC[C@@H]2C)n1 [Compound 26, 4′-(difluoromethyl)-2,6-bis((S)-3-methylmorpholino)-[4,5′-bipyrimidin]-2′-amine]",–,–
1,106,47,"CC1(C)COCCN1c1nc(-c2cnc(N)cc2C(F)F)nc(N2CCOCC2(C)C)n1 [Compound 39, 5-[4,6-bis(3,3-dimethylmorpholin-4-yl)-1,3,5-triazin-2-yl]-4-(difluoromethyl)pyridin-2-amine]",–,–
3,54,45,"CC1(C)COCCN1c1nc(-c2cnc(N)cc2C(F)F)nc(N2CCOCC2)n1 [Compound 42, 4-(difluoromethyl)-5-[4-(3,3-dimethylmorpholin-4-yl)-6-morpholino-1,3,5-triazin-2-yl]pyridin-2-amine]",–,–
5,197,87,"C[C@@H]1COCCN1c1nc(-c2cnc(N)cc2C(F)F)nc(N2[C@H](C)COC[C@@H]2C)n1 [Compound 44, 4-(difluoromethyl)-5-[4-[(3R,5S)-3,5-dimethylmorpholin-4-yl]-6-[(3R)-3-methylmorpholin-4-yl]-1,3,5-triazin-2-yl]pyridin-2-amine]",–,–
7,234,93,"C[C@@H]1COCCN1c1nc(-c2cnc(N)cc2C(F)F)nc(N2CCOCC2(C)C)n1 [Compound 45, 4-(difluoromethyl)-5-[4-(3,3-dimethylmorpholin-4-yl)-6-[(3R)-3-methylmorpholin-4-yl]-1,3,5-triazin-2-yl]pyridin-2-amine]",–,–
36,956,426,"COC[C@@H]1COCCN1c1nc(-c2cnc(N)cc2C(F)F)nc(N2CCOC[C@H]2C)n1 [Compound 46, 4-(difluoromethyl)-5-[4-[(3R)-3-(methoxymethyl)morpholin-4-yl]-6-[(3R)-3-methylmorpholin-4-yl]-1,3,5-triazin-2-yl]pyridin-2-amine]",–,–
4,244,139,"C[C@@H]1COC[C@H](C)N1c1nc(-c2cnc(N)cc2C(F)F)nc(N2CCOCC2(C)C)n1 [Compound 66, 4-(difluoromethyl)-5-[4-(3,3-dimethylmorpholin-4-yl)-6-[(3R,5S)-3,5-dimethylmorpholin-4-yl]-1,3,5-triazin-2-yl]pyridin-2-amine]",–,–
38,506,392,"C[C@@H]1COCCN1c1nc(-c2cnc(N)cc2C(F)F)nc(N2[C@H](C)COC[C@H]2C)n1 [Compound 78, 4-(difluoromethyl)-5-[4-[(3R,5R)-3,5-dimethylmorpholin-4-yl]-6-[(3R)-3-methylmorpholin-4-yl]-1,3,5-triazirin-2-yl]pyridin-2-amine]",–,–
10,200,136,"C[C@@H]1COCCN1c1nc(-c2cnc(N)cc2C(F)F)nc(N2[C@@H](C)COC[C@@H]2C)n1 [Compound 79, 4-(difluoromethyl)-5-[4-[(3S,5S)-3,5-dimethylmorpholin-4-yl]-6-[(3R)-3-methylmorpholin-4-yl]-1,3,5-triazin-2-yl]pyridin-2-amine]",–,–
18,271,192,"C[C@@H]1COCCN1c1nc(-c2cnc(N)cc2C(F)F)nc(N2CCOCC23CCC3)n1 [Compound 88, 4-(difluoromethyl)-5-[4-[(3R)-3-methylmorpholin-4-yl]-6-(8-oxa-5-azaspiro[3.5]nonan-5-yl)-1,3,5-triazin-2-yl]pyridin-2-amine]",–,–
644,194,384,Nc1ncc(-c2cc(N3CCOCC3)nc(N3CCOCC3)n2)c(C(F)(F)F)n1 [reference compound],–,–
1920,175,370,Nc1ncc(-c2nc(N3CCOCC3)cc(N3CCOCC3)n2)c(C(F)(F)F)n1 [reference compound],–,–
152,452,553,C[C@H]1COCCN1c1cc(-c2cnc(N)cc2C(F)(F)F)nc(N2CCOC[C@@H]2C)n1 [reference compound],–,–

Structure (SMILES),IC50 [1] [nM],"IC50 (pPKB S473 in A2058 cells; A2058, 1 h) [nM]","IC50 ([2]; A2058, 1 h) [nM]",IC50 (pPKB S473 in A2058 cells) [nM],IC50 [2] [nM]
"Nc1cc(C(F)F)c(-c2cc(N3CCOCC3)nc(N3CCOCC3)n2)cn1 [Compound 16, 4-(difluoromethyl)-5-(2,6-dimorpholinopyrimidin-4-yl)pyridin-2-amine]",30,–,–,207,184
"Nc1cc(C(F)F)c(-c2nc(N3CCOCC3)cc(N3CCOCC3)n2)cn1 [Compound 18, 4-(difluoromethyl)-5-(4,6-dimorpholinopyrimidin-2-yl)pyridin-2-amine]",31,–,–,243,256
"Nc1cc(C(F)F)c(-c2cc(N3C4CCC3COC4)nc(N3C4CCC3COC4)n2)cn1 [Compound 22, 5-(6-(3-oxa-8-azabicyclo[3.2.1]octan-8-yl)-2-(3-oxa-8-azabicyclo[3.2.1]octan-8-yl)pyrimidin-4-yl)-4-(difluoromethyl)pyridin-2-amine]",18,57,216,–,–
"Nc1cc(C(F)F)c(-c2cc(N3CCOCC3)nc(N3C4CCC3COC4)n2)cn1 [Compound 23, 5-(2-(3-oxa-8-azabicyclo[3.2.1]octan-8-yl)-6-morpholinopyrimidin-4-yl)-4-(difluoromethyl)pyridin-2-amine]",40,285,230,–,–
"Nc1ncc(-c2cc(N3CCOCC3)nc(N3C4CCC3COC4)n2)c(C(F)F)n1 [Compound 24, 2-(3-oxa-8-azabicyclo[3.2.1]octan-8-yl)-4′-(difluoromethyl)-6-morpholino-[4,5′-bipyrimidin]-2′-amine]",35,84,167,–,–
"C[C@H]1COCCN1c1cc(-c2cnc(N)cc2C(F)F)nc(N2CCOCC2)n1 [Compound 27, (S)-4-(difluoromethyl)-5-(6-(3-methylmorpholino)-2-morpholinopyrimidin-4-yl)pyridin-2-amine]",65,–,–,614,766
"C[C@H]1COCCN1c1nc(-c2cnc(N)cc2C(F)F)cc(N2CCOCC2)n1 [Compound 31, (S)-4-(difluoromethyl)-5-(2-(3-methylmorpholino)-6-morpholinopyrimidin-4-yl)pyridin-2-amine]",15,–,–,146,124
"C[C@H]1COCCN1c1nc(-c2cnc(N)nc2C(F)F)cc(N2CCOCC2)n1 [Compound 32, (S)-4′-(difluoromethyl)-2-(3-methylmorpholino)-6-morpholino-[4,5′-bipyrimidin]-2′-amine]",293,–,–,100,387
"C[C@@H]1COC[C@H](C)N1c1nc(-c2cnc(N)cc2C(F)F)nc(N2[C@H](C)COC[C@@H]2C)n1 [Compound 40, 5-[4,6-bis[(3R,5S)-3,5-dimethylmorpholin-4-yl]-1,3,5-triazin-2-yl]-4-(difluoromethyl)pyridin-2-amine]",5,–,–,252,160
"C[C@@H]1COCCN1c1nc(-c2cnc(N)cc2C(F)F)nc(N2CCOC[C@H]2C)n1 [Compound 41, 5-[4,6-bis[(3R)-3-methylmorpholin-4-yl]-1,3,5-triazin-2-yl]-4-(difluoromethyl)pyridin-2-amine]",22,–,–,436,261
"C[C@@H]1COCCN1c1nc(-c2cnc(N)cc2C(F)F)nc(N2C3COCC2COC3)n1 [Compound 47, 4-(difluoromethyl)-5-[4-(3,7-dioxa-9-azabicyclo[3.3.1]nonan-9-yl)-6-[(3R)-3-methylmorpholin-4-yl]-1,35-triazin-2-yl]pyridin-2-amine]",29,469,176,–,–
"CC1(C)COCCN1c1nc(-c2cnc(N)cc2C(F)F)nc(N2C3COCC2COC3)n1 [Compound 69, 4-(difluoromethyl)-5-[4-(3,3-dimethylmorpholin-4-yl)-6-(3,7-dioxa-9-azabicyclo[3.3.1]nonan-9-yl)-1,3,5-triazin-2-yl]pyridin-2-amine]",21,244,140,–,–
"Nc1cc(C(F)F)c(-c2nc(N3C4CCCC3COC4)nc(N3C4COCC3COC4)n2)cn1 [Compound 82, 4-(difluoromethyl)-5-[4-(3,7-dioxa-9-azabicyclo[3.3.1]nonan-9-yl)-6-(3-oxa-9-azabicyclo[3.3.1]nonan-9-yl)-1,3,5-triazin-2-yl]pyridin-2-amine]",40,329,169,–,–
"C[C@H]1COC[C@H](C)N1c1nc(-c2cnc(N)cc2C(F)F)nc(N2[C@@H](C)COC[C@@H]2C)n1 [Compound 83, 5-[4,6-bis[(3S,5S)-3,5-dimethylmorpholin-4-yl]-1,3,5-triazin-2-yl]-4-(difluoromethyl)pyridin-2-amine]",32,–,–,379,294
Nc1cc(C(F)(F)F)c(-c2nc(N3CCOCC3)cc(N3CCOCC3)n2)cn1 [reference compound],366,–,–,555,665
